In patent US20100249402A1, “NOVEL BENZAMIDINE DERIVATIVES, PROCESS FOR THE PREPARATION THEREOF AND PHARMACEUTICAL COMPOSITION FOR PREVENTING OR TREATING OSTEPOROSIS COMPRISING THE SAME” (DONG WHA PHARMACEUTICAL CO. LTD., priority 2007, published 2010):
Like-named read-outs stand apart in the source and are kept apart here.

What was measured:
calvaria = assay: Cytotoxicity test (MTT), calvaria; type: cell-based; settings: 10^−6 M, cultured for 72 hrs, in comparison with the control group
Procedure: (§1) The cytotoxic effect of the benzamidine derivative of the present invention was evaluated by carrying out the experiment described below.
(§2) The test substance was diluted in an appropriate solvent at a concentration of 10^−2 M. This substance was diluted in an appropriate culture medium for the cells used in the cytotoxicity test to a concentration of 10^−6M, and loaded into a 96-well plate in 100 μl per well. The cell lines to be used in the cytotoxicity test were plated on a 96-well plate in a dose of 1.0×10^4 cell/100 μl per well, and cultured for 72 hrs. 25 μl of MTT[3-(4,5-dimethyl-2-thiazolyl)-2,5-diphenyl-2H-tetrazolium bromide] dissolved in PBS (2 mg/mL) were added before 4 hrs of the end of culture. After completion of the reaction, the plates were centrifuged, the medium was discarded and 100 μl of DMSO was added to dissolve formazan. Finally, the absorbance of the developed plates was measured at 540 nm. The survival rates of the cells were expressed as % concentration values in comparison with the control group.

MC3T3-E1 = assay: Cytotoxicity test (MTT), MC3T3-E1; type: cell-based; settings: 10^−6 M, cultured for 72 hrs, in comparison with the control group
Procedure: as §1, §2

[1] = system: osteoclast differentiation; assay: Inhibitory effects on osteoclast differentiation (bone marrow cell/osteoblast co-culture, TRAP staining); type: cell-based, mice; settings: Mus musculus, Osteoclast, 168 h, read-out: Inhibition of osteoclast differentiation (%)
Procedure: The effect of the benzamidine derivative of the present invention on osteoclast formation and differentiation process was evaluated via co-culture with an osteoblast.
Tibia was aseptically ectomized from 6 to 8-week-old male ddY mice to harvest bone marrow cells by using a syringe (21G, Korea Green Cross). The bone marrow cells were suspended in 5 mL of an α-MEM medium (Gibco BRL Co., supplemented with sodium bicarbonate (2.0 g/L), streptomycin (100 mg/L) and penicillin ([…]), filtered and then sterilized). The harvested cells were centrifuged at 600×g for 5 minutes to collect the whole quantity. To remove the red blood cells in the bone marrow cells, 3 mL of Tris HCl (0.83% NH4Cl, pH 7.5) was added and well mixed. After centrifugation, the numbers of the eukaryotic cells in the harvested bone marrow cells were counted, and then immediately used for a co-culture system.
The progenitor bone and the parietal bone were aseptically ectomized from 1 to 2-day-old neonatal ICR mice, washed with a phosphate butter solution (PBS), and treated with a mixed enzyme solution (0.2% collagenase and 0.1% dispase) six to seven times (10, 10, 10, 20, 20 and 20 min), and then 3 to 6 groups of the cells, in which a large volume of cells having osteoblastic characteristics were contained, were intensively collected, and washed with medium (serum-free α-MEM). The washed cells were cultured in the α-MEM medium containing 10% FBS for 2 to 3 days. After sub-culturing, the collected cells were used for this experiment, and diluted to a concentration of 1×10^6 cells/mL for storage at −70° C.
The benzamidine derivative of the present invention was dissolved in a sterile distilled water or ethanol to be diluted to a desired concentration. The final volume of the sample added to the cell culture medium was set at a ratio of 1:1000.
The bone marrow cells prepared in the above 1-1 and the osteoblast were co-cultured. Both the bone marrow cells (25,000 cells/cm^2) and the osteoblast (10,000 cells/cm^2) were plated in a 96-well plate using α-MEM medium containing FBS, and then cultured with the samples to be tested for 7 days. Differentiation factors, such as dexamethasone (10^−7 M) and vitamin D (10^−8 M), were also co-added to the medium from the first day of cultivation. The medium was changed with a fresh media containing a mixture of the samples and the differentiation factors every 2 to 3 days.
TRAP was used as a marker to measure the matured osteoclast in consideration of its characteristics showing a positive reaction to a TRAP staining solution.
The TRAP staining solution was prepared in such the manner that 5 mg of naphthol AS-MS phosphate (sigma N-4875) as a substrate and 25 mg of a coloring agent (Fast Red Violet LB salt) were dissolved in N,N-dimethylformamide (about 0.5 mL). 50 ml of a 0.1 N […] buffer solution containing 50 mM tartaric acid (pH 5.0) was added thereto, and the mixture was stored in a refrigerator prior to use as a staining solution.
After culturing the cells for 7 days, the medium was removed from the wells, the cells were once washed with PBS, and then fixed with PBS containing 10% formalin for 2 to 5 min. The cells were fixed again in a mixed solution of ethanol and acetone (1/1) for about 1 min, and dried off. The cells were further treated by the TRAP staining solution for 15 minutes, and washed with water and dried off. The osteoclasts with 3 or more nuclei showing a TRAP-positive reaction were counted under a microscopic examination. Each of tests was confirmed at least three times. The inhibitory effect on osteoclast differentiation of each experimental group, relative to negative controls, was expressed as a percentage (%).

HOS = assay: Cytotoxicity test (MTT), HOS; type: cell-based; settings: 10^−6 M, cultured for 72 hrs, in comparison with the control group
Procedure: as §1, §2

[2] = 1 μm, 7 days co-culture, TRAP-positive osteoclasts with 3 or more nuclei, relative to negative controls

SMILES	Cell survival rate (calvaria) [%]	Cell survival rate (MC3T3-E1) [%]	inhibition at 1 µM [1, 2] [%]	Cell survival rate (HOS) [%]	inhibition at 1 µM [1] [%]
Cc1nc(-c2ccc(OCCCCCOc3ccc(C(=N)NO)cc3)cc2)c(N2CCOCC2)s1 [Example 1, N-hydroxy-4-{5-[4-(2-methyl-5-morpholin-4-yl-thiazol-4-yl)-phenoxy]-pentyloxy}-benzamidine]	91.5	85.9	94	105.6	–
Cc1nc(-c2ccc(OCCCCCOc3ccc(C(=N)NO)cc3)cc2)c(N2CCN(C)CC2)s1 [Example 2, N-hydroxy-4-(5-{4-[2-methyl-5-(4-methyl-piperazin-1-yl)-thiazol-4-yl]-phenoxy}-pentyloxy)-benzamidine]	87.9	91.8	78.6	107.0	–
N=C(NO)c1ccc(OCCCCCOc2ccc(-c3nc(N)sc3N3CCOCC3)cc2)cc1 [Example 3, N-hydroxy-4-{5-[4-(2-amino-5-morpholin-4-yl-thiazol-4-yl)-phenoxy]-pentyloxy}-benzamidine]	97.7	94.6	73.2	89.0	–
CN1CCN(c2sc(N3CCOCC3)nc2-c2ccc(OCCCCCOc3ccc(C(=N)NO)cc3)cc2)CC1 [Example 4, N-hydroxy-4-(5-{4-[5-(4-methyl-piperazin-1-yl)-2-morpholin-4-yl-thiazol-4-yl]-phenoxy}-pentyloxy)-benzamidine]	93	89	–	104	100
N=C(NO)c1ccc(OCCCCCOc2ccc(-c3nc(N4CCOCC4)sc3N3CCOCC3)cc2)cc1 [Example 5, N-hydroxy-4-{5-[4-(2,5-di-morpholin-4-yl-thiazol-4-yl)-phenoxy]-pentyloxy}-benzamidine]	98	93	98	100	–
N=C(NO)c1ccc(OCCCCCOc2ccc(-c3nc(N4CCOCC4)sc3N3CCSCC3)cc2)cc1 [Example 6, N-hydroxy-4-{5-[4-(2-morpholin-4-yl-5-thiomorpholin-4-yl-thiazol-4-yl)-phenoxy]-pentyloxy}-benzamidine]	106	90	–	92	92
N=C(NO)c1ccc(OCCCCCOc2ccc(-c3nc(N4CCOCC4)sc3N3CCCC3)cc2)cc1 [Example 7, N-hydroxy-4-{5-[4-(2-morpholin-4-yl-5-pyrrolidin-1-yl-thiazol-4-yl)-phenoxy]-pentyloxy}-benzamidine]	101	99	–	92	58
Cc1nc(-c2ccc(OCCCCCOc3ccc(C(=N)NO)cc3)cc2)c(CN2CCOCC2)s1 [Example 8, N-hydroxy-4-{5-[4-(2-methyl-5-morpholin-4-ylmethyl-thiazol-4-yl)-phenoxy]-pentyloxy}-benzamidine]	90.7	94.7	96.4	102.3	–
Cc1nc(-c2ccc(OCCCCCOc3ccc(C(=N)NO)cc3)cc2)c(CN2CCN(C)CC2)s1 [Example 9, N-hydroxy-4-(5-{4-[2-methyl-5-(4-methyl-piperazin-1-ylmethyl)-thiazol-4-yl]-phenoxy}-pentyloxy)-benzamidine]	92.3	98.8	–	95	96.4
Cc1nc(-c2ccc(OCCCCCOc3ccc(C(=N)NO)cc3)cc2)c(CN2CCSCC2)s1 [Example 10, N-hydroxy-4-{5-[4-(2-methyl-5-thiomorpholin-4-ylmethyl-thiazol-4-yl)-phenoxy]-pentyloxy}-benzamidine]	94.5	93.4	–	101	92.9
Cc1nc(-c2ccc(OCCCCCOc3ccc(C(=N)NO)cc3)cc2)c(CN2CCCCC2)s1 [Example 11, N-hydroxy-4-{5-[4-(2-methyl-5-piperidin-1-ylmethyl-thiazol-4-yl)-phenoxy]-pentyloxy}-benzamidine]	95.8	91.9	92.3	101.9	–
Cc1nc(-c2ccc(OCCCCCOc3ccc(C(=N)NO)cc3)cc2)c(CN(C)C)s1 [Example 12, N-hydroxy-4-{5-[4-(5-dimethylaminomethyl-2-methyl-thiazol-4-yl)-phenoxy]-pentyloxy}-benzamidine]	95.6	98.8	–	107.5	64.9
CCCCNCc1sc(C)nc1-c1ccc(OCCCCCOc2ccc(C(=N)NO)cc2)cc1 [Example 13, N-hydroxy-4-{5-[4-(5-butylaminomethyl-2-methyl-thiazol-4-yl)-phenoxy]-pentyloxy}-benzamidine]	96	93	100	106	–
Cc1nc(-c2ccc(OCCCCCOc3ccc(C(=N)NO)cc3)cc2)c(CNCC(C)C)s1 [Example 14, N-hydroxy-4-(5-{4-[5-(isobutylamino-methyl)-2-methyl-thiazol-4-yl]-phenoxy}-pentyloxy)-benzamidine]	103	98	–	111	100
Cc1nc(-c2ccc(OCCCCCOc3ccc(C(=N)NO)cc3)cc2)c(CNC(C)(C)C)s1 [Example 15, N-hydroxy-4-(5-{4-[5-(tert-butylamino-methyl)-2-methyl-thiazol-4-yl]-phenoxy}-pentyloxy)-benzamidine]	105	99	–	98	100
CCCNCc1sc(C)nc1-c1ccc(OCCCCCOc2ccc(C(=N)NO)cc2)cc1 [Example 16, N-hydroxy-4-{5-[4-(2-methyl-5-propylaminomethyl-thiazol-4-yl)-phenoxy]-pentyloxy}-benzamidine]	95	92	–	100	100
Cc1nc(-c2ccc(OCCCCCOc3ccc(C(=N)NO)cc3)cc2)c(CNCCN2CCOCC2)s1 [Example 17, N-hydroxy-4-[5-(4-{2-methyl-5-[(2-morpholin-4-yl-ethylamino)-methyl]-thiazol-4-yl}-phenoxy)-pentyloxy]-benzamidine]	93	103	–	99	100
Cc1nc(-c2ccc(OCCCCCOc3ccc(C(=N)NO)cc3)cc2)c(-n2cncn2)s1 [Example 44, N-hydroxy-4-{5-[4-(2-methyl-5-[1,2,4]triazol-1-yl-thiazol-4-yl)-phenoxy]-pentyloxy}-benzamidine]	–	–	68	–	–
